# Test results published in US11896615B2, “Immunotherapy methods and compositions involving tryptophan metabolic pathway modulators” (Juno Therapeutics, Inc., priority 2016, dated 2024).
# Entries after “also recorded” stand apart in the source; their conditions may differ.
# Experiments:
# [1] = system: anti-CD19 CAR-expressing T cells; assay: Effect of tryptophan metabolites on CAR T proliferation with IDO1- target cells; format: cell-based, human; conditions: 96 hours; for CAR T cell proliferation: CD19.Daudi target cells, 0 to 100 μM; for CAR T cell numbers (CD3+ cells per well): CD19.K562 target cells, 6.25 to 100 μM
# Method: Cells were stained for surface expression of CD4 and CD8. Proliferation of T cell populations was determined by flow cytometry, based on the extent of dilution of the CellTrace™ violet dye. […] The number of CD3^+ cells per well was determined using CountBright beads.
# [2] = system: HS-5 human bone marrow stromal cells; assay: IDO1 expression in HS-5 bone marrow stromal cells after IFNγ; format: cell-based; conditions: 20 ng/mL recombinant human IFNγ, 24 hours
# Method: Expression level of Indoleamine-Pyrrole 2,3-Dioxygenase 1 (IDO1) was determined in bone marrow stromal cells upon stimulation by interferon-gamma (IFNγ) or with co-incubation with CAR-expressing T cells. Bone marrow stromal cells are exemplary of bystander cells, e.g., non-tumor cells, present in the TME.
# HS-5 human bone marrow stromal cells were stimulated with 20 ng/mL recombinant human IFNγ for 24 hours.
# dendritic cells = assay: IDO1 expression in dendritic cells after IFNγ and/or LPS stimulation; format: cell-based; conditions: dendritic cells (DC), 24 hours stimulation
# Method: To assess whether myeloid cells present in the TME, including tumor-associated macrophages and dendritic cells, can be induced to express IDO1, the expression level of IDO1 in dendritic cells and macrophages upon stimulation by interferon-gamma (IFNγ) or lipopolysaccharide (LPS) was determined by flow cytometry. Dendritic cells were subject to monoculture with GM-CSF and interleukin-4 (IL-4), and macrophages were subject to monoculture with M-CSF, for 6 days. After monoculture, the cells were stimulated with IFNγ and/or LPS for 24 hours, and IDO1 expression was determined by flow cytometry.
# [3] = system: JeKo-1, Daudi, Raji and Nalm-6 cells; assay: IDO1 expression in other CD19+ tumor cell lines after IFNγ incubation; format: cell-based, human; conditions: incubation with IFNγ under similar conditions
# Method: (§1) A549 adenocarcinoma human alveolar basal epithelial cells transduced with human CD19 (CD19.A549 cells, which may also referred to as A549.CD19 cells) were assessed for expression of indoleamine-pyrrole 2,3-dioxygenase 1 (IDO1) following stimulation with interferon-gamma (IFNγ). CD19.A549 cells were stimulated with IFNγ for 24 or 48 hours and IDO1 levels were assessed by flow cytometry using an anti-IDO antibody. […] Increased IDO1 expression was not detected in other CD19^+ tumor cell lines in this assay, including JeKo-1, Daudi, Raji and Nalm-6 cells, following incubation with IFNγ under similar conditions.
# CD19.A549 cells = assay: IDO1 expression in CD19.A549 cells after IFNγ stimulation (flow cytometry); format: cell-based, human
# Method: as §1
# CD19.A549 cells were cultured with various concentrations of recombinant human IFNγ.
# [4] = system: anti-CD19 CAR-expressing T cells; assay: CAR T cell counts and proliferation with IDO1 inhibitor or supplemental tryptophan in co-culture with CD19.A549; format: cell-based, human; conditions: 5 μg/mL added every 24 hours, 96 hours with IDO1+ A549.CD19, compared to no treatment
# Method: Proliferation was assessed by flow cytometry, and CAR+ T cell count in each well was determined.
# [5] = system: anti-CD19 CAR-expressing cells; assay: Intracellular cytokines after re-exposure to antigen following tryptophan starvation; format: cell-based, human; conditions: tryptophan supplementation in the subsequent culture
# Method: Effect of tryptophan starvation on CAR-T function (proliferation, cytokine production) following subsequent re-exposure to antigen was assessed. […] The cells were harvested, counted and re-cultured with fresh CD19-expressing A549 target cells (CD19.A549) in tryptophan-depleted media (media from the “no tx” cultures at 96 hours) with or without supplemented tryptophan. Intracellular levels of interferon-gamma (IFNγ) and interlekukin-2 (IL-2) were assessed by intracellular cytokine staining, and the percentage of CD4+ or CD8+ cells deemed positive for the given intracellular cytokine production was determined.
# CAR-expressing T cells = assay: CAR T function in tryptophan-depleted media with supplemental tryptophan; format: cell-based, human
# Method: Effects of tryptophan starvation on antigen-induced function of CAR-T cells were assessed. CAR-expressing T cells labeled with CellTrace™ violet were co-cultured with target cells (K562 human myelogenous leukemia target cells transduced with CD19 (CD19.K562)) that had been observed not to induce IDO1-expression, in tryptophan-depleted media, with or without the addition of various concentrations of supplemental tryptophan. Tryptophan-containing media was used as a control (Trp Control). Target cell count and proliferation (assessed by flow cytometry via CTV dye dilution; MFI=mean fluorescence intensity).
# A similar study was carried out to assess effects of tryptophan-starvation, but in which CAR-mediated function was induced using an agonistic anti-idiotype antibody specific for the CAR as opposed to antigen-expressing target cells. Anti-CD19 CAR-expressing cells, generated substantially as described in Example 1, were stimulated for 96 hours using plate-bound anti-idiotypic agonistic antibody, in tryptophan-depleted media, alone or supplemented with various concentrations of tryptophan. The number of CD3^+ cells per well was determined. Representative results from exemplary studies are shown in FIG. 15D and FIG. 15E (results from three different donors). […]
# [6] = system: anti-CD19 CAR-expressing T cells; assay: Cytokine release in co-culture supernatants; format: cell-based, human; conditions: for GM-CSF level in supernatant / IFNγ level in supernatant / TNFα level in supernatant: epacadostat 10, 100 or 1000 nM or supplemental tryptophan, compared to no addition; for IL-2 levels in supernatant: for up to 72 hours, levels decreased at 96 hours
# [7] = system: CD4+ and CD8+ CAR-expressing T cells; assay: CD25 surface expression on CD4+ and CD8+ CAR-expressing T cells (flow cytometry); format: cell-based, human
# [8] = system: anti-CD19 CAR-expressing T cells; assay: Recovery from tryptophan starvation; format: cell-based, human; conditions: supplemental tryptophan added after starvation, out to 96 hours
# Method: Anti-CD19 CAR-expressing T cells, generated as described in Example 1, were cultured in tryptophan starvation conditions (chemically defined tryptophan-free media) for 24, 48, 72 or 96 hours (24, 48, 72 or 96 hr Trp starv.). After tryptophan starvation for the indicated time, supplemental tryptophan was added to the cultures. The cells then were cultured in the presence of tryptophan until the cells were harvested at 24, 48, 72 or 96 hours. As a control, reflecting tryptophan sufficient conditions, cells were cultured in tryptophan-sufficient media for each respective time period (complete media). The number of CD3^+ cells per well was assessed. Intracellular production of interferon-gamma (IFNγ) and tumor necrosis factor alpha (TNFα) was assessed by intracellular cytokine staining, and the percentage of CD4+ or CD8+ cells positive for cytokine accumulation was determined.
# [9] = system: anti-ROR1 CAR-expressing T cells; assay: Proliferation of anti-ROR1 CAR T cells co-cultured with CD19.A549 cells; format: cell-based, human; conditions: 250 nM, E:T 3:1, 96 hours, compared to absence of inhibitor
# Description: Similar methods were used to assess the effect of the IDO1 inhibitor on proliferation of anti-ROR1 CAR-expressing T cells cultured in the presence of antigen-expressing target cells.
# [10] = system: anti-CD19 CAR-expressing T cells; assay: Sustained expansion of anti-CD19 CAR T cells (% confluency over time); format: cell-based, human
# Method: Expansion of anti-CD19 expressing CAR cells following co-culture with A549 adenocarcinoma human alveolar basal epithelial cells transduced with human CD19 (CD19.A549 cells) was assessed for over 10 days. […] Expansion was assessed based on % confluency in the culture as determined over time. […] The IDO1 inhibitor-promoted increase in expansion was sustained for more than 10 days in culture. The results were consistent with a conclusion that IDO-upregulation and/or IDO-dependent signaling can occur or be promoted following CAR-T antigen-specific activation and result in dampening of proliferation of the CAR-T cells, e.g., over a 5- or 10-day period, and that inhibition of IDO can in some contexts rescue such inhibition.
# [11] = system: anti-CD19 CAR-expressing T cells; assay: Proliferation of anti-CD19 CAR T cells co-cultured with IDO1+ CD19.A549 cells (CellTrace violet dilution, bead counts, microscopy); format: cell-based, human
# Method: Cells were stained for expression of CD4 and CD8 and proliferation of T cell populations determined by flow cytometry, based on the extent of dilution of the CellTrace™ Violet dye.
# Similar methods were used to assess proliferation of anti-CD19 CAR-expressing T cells generated from three different healthy donors following co-culture with CD19-expressing A549 target cells (CD19.A549).
# The number of CAR T cells in each well was determined using CountBright Absolute Counting beads.
# (§2) Similar methods were used to assess the effect of the IDO1 inhibitor on proliferation of CAR-expressing T cells following co-culture of anti-CD19 CAR-expressing cells with either IDO1^+ cells (A549.CD19) or IDO1^− cells (K562.CD19). […] The average number of CAR T cell divisions was calculated based on peaks in dye dilution, and proliferation of CD4^+ and CD8^+ subsets was compared.
# Cells were visualized at 72 hours and 120 hours.
# [12] = system: anti-CD19 CAR-expressing T cells; assay: Proliferation of anti-CD19 CAR T cells co-cultured with IDO1- target cells (CD19.Daudi, K562.CD19); format: cell-based, human; conditions: co-culture with IDO1- cells, various concentrations
# Method: as §2
# CD19.A549 = assay: Cytolytic activity of anti-CD19 CAR T cells (Incucyte, NucRed-labeled targets); format: cell-based, human; conditions: 0 to 1000 nM, 0.25:1 E:T, up to approximately 340 hours
# Method: Lysis of target cells was measured over time using the Incucyte quantitative cell analysis system (Essen BioScience) by assessing the staining intensity of cells for the NucRed dye.
# CAR T cells = assay: CAR T cell proliferation in the presence of IDO1+ HS-5 bystander cells; format: cell-based, human; conditions: with or without HS-5 cells, 96 hours, various concentrations
# Method: Proliferation of CAR T cells in the presence of IDO1-expressing bone marrow stromal cells or an IDO1 inhibitor was determined.
# [13] = supplemental tryptophan or 100 nM or 1000 nM epacadostat, co-culture with CD19.A549
compound,measurement,setting,value
Nc1ccccc1C(=O)C[C@H](N)C(=O)O [L-Kynurenine],CAR T cell proliferation,[1],did not inhibit CAR T cell proliferation
same,CAR T cell numbers (CD3+ cells per well),[1],did not substantially affect CAR T cell numbers
"IFNγ: interferon-gamma (IFNγ), recombinant human",IDO1 expression,[2],increase of IDO1 expression
same,IDO1 expression,dendritic cells,induced IDO1 expression
same,IDO1 expression,[3],not detected
same,IDO1 expression,"CD19.A549 cells; IFNγ stimulation for 24 and 48 hours, compared to unstimulated cells",increased expression of endogenous IDO1
same,IDO1 expression (MFI),CD19.A549 cells; various concentrations of recombinant human IFNγ,dose-responsive increase in IDO1 expression
N[C@@H](Cc1c[nH]c2ccccc12)C(=O)O [tryptophan],proliferation of CAR-T cells,[4],restored proliferation of the CAR-T cells
same,"reduction in cytokine production (IFNγ, IL-2) after re-encounter with target cells",[5],partially restored
same,inhibitory effect of tryptophan starvation on antigen-specific function of CAR T cells,"CAR-expressing T cells; CD19.K562 target cells, tryptophan-depleted media",reversed
same,inhibition of CAR-mediated function by tryptophan starvation (CD3+ cells per well),"CAR-expressing T cells; plate-bound anti-idiotypic agonistic antibody, 96 hours",restored
same,GM-CSF level in supernatant,[6],increased level
same,IFNγ level in supernatant,[6],increased level
same,TNFα level in supernatant,[6],increased level
same,IL-2 levels in supernatant,[6],increased
same,CD25 surface expression (MFI),[7]; [13],reduced
same,proliferative capacity after tryptophan starvation,[8],did not completely restore proliferative capacity
"Nc1c(O)cccc1C(=O)O [3-HAA, 3-hydroxyanthranilic acid]",CAR T cell proliferation,[1],did not inhibit CAR T cell proliferation
same,CAR T cell numbers (CD3+ cells per well),[1],did not substantially affect CAR T cell numbers
"NS(=O)(=O)NCCNc1nonc1C(=NO)Nc1ccc(F)c(Br)c1 [epacadostat, 4-({2-[(aminosulfonyl)amino]ethyl}amino)-N-(3-bromo-4-fluorophenyl)-N′-hydroxy-1,2,5-oxadiazole-3-carboximidamide]",number of CAR T cells,[9],higher number of CAR T cells
same,expansion of CAR-expressing T cells (% confluency),"[10]; 0 to 1000 nM, up to approximately 340 hours",increasing expansion of CAR-expressing T cells
same,duration of inhibitor-promoted increase in expansion,[10]; in culture with CD19.A549,over 10 days
same,number of CAR T cells per well,"[11]; 250 nM, 96 hours, three donors, compared to absence of inhibitor",higher number CAR T cells
same,CAR-expressing T cells visualized by microscopy,"[11]; 1 μM, 120 hours, 1:1 E:T, compared to no inhibitor",large increase in CAR-expressing T cells
same,EC50,"[11]; Homo sapiens, co-culture with A549 cells (IDO1+), 1:1 E:T, read-out: estimated EC50 (CAR T proliferation)",~223 nM
same,proliferation of CD4+ and CD8+ CAR-expressing T cells,"[11]; co-culture with IDO1+ CD19.A549 cells, 96 hours, various concentrations",dose-dependent increase in proliferation; also recorded: increased proliferation
same,TNFα production,"[6]; 48 hours, 1:1 E:T with CD19.A549, various concentrations",increased TNFα production
same,GM-CSF level in supernatant,[6],increased level
same,IFNγ level in supernatant,[6],increased level
same,TNFα level in supernatant,[6],increased level
same,IL-2 levels in supernatant,[6],increased
same,proliferation of CD4+ and CD8+ CAR-expressing T cells,[12],not when co-cultured with IDO1^− cells (Daudi)
same,CD25 surface expression (MFI),"[7]; 96 hours co-culture with IDO1+ CD19.A549 cells, 1:1 E:T",reduced
same,CD25 surface expression,[7]; 96 hours co-culture with IDO1- CD19.Daudi cells,not affected
same,CD25 surface expression (MFI),[7]; [13],reduced
same,NucRed dye intensity of target cells (AUC),CD19.A549,dose-dependent reduction of NucRed dye intensity
same,proliferation of CAR T cells,CAR T cells,not substantially affected
